From patent US20260285853A1, “COMPOUNDS AND METHODS FOR MODULATING SPLICING” (REMIX THERAPEUTICS INC., priority 2023, published 2026)
Structures can show the parent of a compound that is named as a salt.

How the values were obtained:
Format in all cases: cell-based
HTT mRNA [1] = assay: Gene panel canonical junction qPCR assay, decrease in CJ mRNA, Table 3; conditions: decrease in canonical junction (CJ) mRNA, gene panel qPCR, Table 3
How it was run: (§1)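 A673 (DMEM, 10% FBS, 15,000 cells/well) or K562 (IMDM, 10% FBS) cells treated 24 h at 37 °C with 11-point 3-fold dilutions, top 10 uM, DMSO ≤0.25%. Canonical exon-exon junction mRNA measured by RT-qPCR, normalized to GAPDH, GUSB or PPIA and DMSO (ΔΔCt); IC50 from 4-parameter logistic fit.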

MYB mRNA [2] = assay: as above; conditions: decrease in canonical junction (CJ) mRNA, gene panel qPCR, Table 3
How it was run: as §1

[3] = tested on: SH-SY5Y (human neuroblastoma) cells; assay: Cell viability, Cell Titer Glo 2.0 assay; conditions: read-out: Viability SHSY5Y.3 GI50
How it was run: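 Toxicity screen in SH-SY5Y cells. Compounds were serially diluted in DMSO and then in medium, giving 0.1% DMSO final. Viability was read with CellTiter-Glo 2.0 after 72 h at 37 °C, 5% CO2, against medium-only blank wells.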

HTT mRNA [4] = assay: Splicing RT-qPCR assay (THP), Table 2A; conditions: Table 2A (THP); for AC50: AJ mRNA increase, read-out: HTT AJ (increase in alternative junction mRNA, AC50); for IC50: CJ mRNA decrease, read-out: HTT CJ (decrease in canonical junction mRNA, IC50)
MYB mRNA [5] = assay: Splicing RT-qPCR assay (THP), Table 2A; conditions: Table 2A (THP); for AC50: AJ mRNA increase, read-out: MYB AJ (increase in alternative junction mRNA, AC50); for IC50: CJ mRNA decrease, read-out: MYB CJ (decrease in canonical junction mRNA, IC50)

CNCC1CCCN(c2ccc(C(=O)Nc3cn4cc(C)nc(C)c4n3)c3nn(C)cc23)C1 (stereo not shown) [Compound 534]
> 10 µM: IC50 (HTT mRNA [1]) | IC50 (MYB mRNA [2]) | GI50 [3] | AC50 (HTT mRNA [4]) | IC50 (HTT mRNA [4]) | AC50 (MYB mRNA [5]) | IC50 (MYB mRNA [5])

Cc1cn2cc(NC(=O)c3ccc(N4CCNC(C)CC4)c4cn(C)nc34)nc2c(C)n1 (stereo not shown) [Compound 535]
1 to 10 µM: IC50 (HTT mRNA [1]) | IC50 (MYB mRNA [2]) | GI50 [3] | AC50 (HTT mRNA [4]) | IC50 (HTT mRNA [4]) | AC50 (MYB mRNA [5]) | IC50 (MYB mRNA [5])

Cc1cn2cc(NC(=O)c3ccc(NC4CCCNCC4)c4cn(C)nc34)nc2c(C)n1 (stereo not shown) [Compound 536]
> 10 µM: IC50 (HTT mRNA [1]) | IC50 (MYB mRNA [2]) | GI50 [3] | AC50 (HTT mRNA [4]) | IC50 (HTT mRNA [4]) | AC50 (MYB mRNA [5]) | IC50 (MYB mRNA [5])

Cc1cn2cc(NC(=O)c3ccc(OC4CCNC4)c4cn(C)nc34)nc2c(C)n1 (stereo not shown) [Compound 537]
> 10 µM: IC50 (HTT mRNA [1]) | IC50 (MYB mRNA [2]) | GI50 [3] | AC50 (HTT mRNA [4]) | IC50 (HTT mRNA [4]) | AC50 (MYB mRNA [5]) | IC50 (MYB mRNA [5])

CNCC1CCN(c2ccc(C(=O)Nc3cc4cn(C)nc4cc3OC)c3nn(C)cc23)C1 (stereo not shown) [Compound 538]
1 to 10 µM: GI50 [3]
0.1 to 1 µM: IC50 (MYB mRNA [2]) | AC50 (MYB mRNA [5]) | IC50 (MYB mRNA [5])
> 10 µM: IC50 (HTT mRNA [1]) | AC50 (HTT mRNA [4]) | IC50 (HTT mRNA [4])

COc1cc2nn(C)cc2cc1NC(=O)c1ccc(N2CCC(N3CCNCC3)C2)c2cn(C)nc12 (stereo not shown) [Compound 539]
1 to 10 µM: AC50 (HTT mRNA [4])
> 10 µM: IC50 (HTT mRNA [1]) | IC50 (MYB mRNA [2]) | GI50 [3] | IC50 (HTT mRNA [4]) | AC50 (MYB mRNA [5]) | IC50 (MYB mRNA [5])

COc1cc2nn(C)cc2cc1NC(=O)c1ccc(N2CCC3(CCN3)CC2)c2cn(C)nc12 [Compound 540]
1 to 10 µM: IC50 (HTT mRNA [1]) | GI50 [3] | AC50 (HTT mRNA [4]) | IC50 (HTT mRNA [4])
< 0.1 µM: IC50 (MYB mRNA [2]) | AC50 (MYB mRNA [5]) | IC50 (MYB mRNA [5])

COc1cc2nn(C)cc2cc1NC(=O)c1ccc(N2CCC3(CCCN3)CC2)c2cn(C)nc12 [Compound 541]
< 0.1 µM: IC50 (MYB mRNA [2]) | AC50 (MYB mRNA [5]) | IC50 (MYB mRNA [5])
0.1 to 1 µM: IC50 (HTT mRNA [1]) | AC50 (HTT mRNA [4]) | IC50 (HTT mRNA [4])
1 to 10 µM: GI50 [3]

COc1cc2nn(C)cc2cc1NC(=O)c1ccc(N2CCC3NCC3C2)c2cn(C)nc12 (stereo not shown) [Compound 542]
> 10 µM: IC50 (HTT mRNA [1]) | GI50 [3] | AC50 (HTT mRNA [4]) | IC50 (HTT mRNA [4])
0.1 to 1 µM: AC50 (MYB mRNA [5])
1 to 10 µM: IC50 (MYB mRNA [2]) | IC50 (MYB mRNA [5])

COc1cc2nn(C)cc2cc1NC(=O)c1ccc(N2CCC3NCCC3C2)c2cn(C)nc12 (stereo not shown) [Compound 543]
1 to 10 µM: IC50 (HTT mRNA [1]) | GI50 [3] | AC50 (HTT mRNA [4]) | IC50 (HTT mRNA [4])
0.1 to 1 µM: IC50 (MYB mRNA [2]) | AC50 (MYB mRNA [5]) | IC50 (MYB mRNA [5])

COc1cc2nn(C)cc2cc1NC(=O)c1ccc(N2CCN(C3CNC3)CC2)c2cn(C)nc12 [Compound 544]
0.1 to 1 µM: IC50 (HTT mRNA [1]) | IC50 (MYB mRNA [2]) | GI50 [3] | AC50 (HTT mRNA [4]) | IC50 (HTT mRNA [4]) | AC50 (MYB mRNA [5]) | IC50 (MYB mRNA [5])

CNCC1CCCN(c2ccc(C(=O)Nc3cc4cn(C)nc4cc3OC)c3nn(C)cc23)C1 (stereo not shown) [Compound 545]
1 to 10 µM: IC50 (MYB mRNA [2]) | GI50 [3] | AC50 (MYB mRNA [5]) | IC50 (MYB mRNA [5])
> 10 µM: IC50 (HTT mRNA [1]) | AC50 (HTT mRNA [4]) | IC50 (HTT mRNA [4])

COc1cc2nn(C)cc2cc1NC(=O)c1ccc(N2CCNC(C)CC2)c2cn(C)nc12 (stereo not shown) [Compound 546]
0.1 to 1 µM: IC50 (MYB mRNA [2]) | AC50 (MYB mRNA [5]) | IC50 (MYB mRNA [5])
> 10 µM: IC50 (HTT mRNA [1]) | AC50 (HTT mRNA [4]) | IC50 (HTT mRNA [4])
1 to 10 µM: GI50 [3]

COc1cc2nn(C)cc2cc1NC(=O)c1ccc(NC2CCCNCC2)c2cn(C)nc12 (stereo not shown) [Compound 547]
> 10 µM: GI50 [3]
1 to 10 µM: IC50 (HTT mRNA [1]) | IC50 (MYB mRNA [2]) | AC50 (HTT mRNA [4]) | IC50 (HTT mRNA [4]) | AC50 (MYB mRNA [5]) | IC50 (MYB mRNA [5])

COc1cc2nn(C)cc2cc1NC(=O)c1ccc(N(C)C2CCNCC2)c2cn(C)nc12 [Compound 548]
0.1 to 1 µM: IC50 (MYB mRNA [2]) | AC50 (MYB mRNA [5]) | IC50 (MYB mRNA [5])
> 10 µM: IC50 (HTT mRNA [1]) | AC50 (HTT mRNA [4]) | IC50 (HTT mRNA [4])
1 to 10 µM: GI50 [3]

Cc1cn2cc(NC(=O)c3ccc(N4C[C@H](C)N[C@@H](C)C4)c4cn(C)nc34)nc2c(C)n1 [Compound 549]
> 10 µM: IC50 (HTT mRNA [1]) | GI50 [3] | AC50 (HTT mRNA [4]) | IC50 (HTT mRNA [4])
1 to 10 µM: IC50 (MYB mRNA [2]) | AC50 (MYB mRNA [5]) | IC50 (MYB mRNA [5])

COc1cc2nn(C)cc2cc1NC(=O)c1ccc(N2C[C@H](C)N[C@@H](C)C2)c2cn(C)nc12 [Compound 553]
0.1 to 1 µM: IC50 (MYB mRNA [2]) | IC50 (MYB mRNA [5])
< 0.1 µM: AC50 (MYB mRNA [5])
1 to 10 µM: IC50 (HTT mRNA [1]) | GI50 [3] | AC50 (HTT mRNA [4]) | IC50 (HTT mRNA [4])

Cc1cn2cc(NC(=O)c3ccc(N4CCNC(C)C4)c4cn(C)nc34)nc2c(C)n1 (stereo not shown) [Compound 557]
> 10 µM: IC50 (HTT mRNA [1]) | AC50 (HTT mRNA [4]) | IC50 (HTT mRNA [4])
0.1 to 1 µM: IC50 (MYB mRNA [2]) | AC50 (MYB mRNA [5]) | IC50 (MYB mRNA [5])
1 to 10 µM: GI50 [3]

CC1OB(O)c2ccc(NC(=O)c3c(F)cc(N4CCC(NC5CC5)CC4)c4cn(C)nc34)cc21 (stereo not shown) [Compound 558, 4-(4-(cyclopropyl-amino)piperidin-1-yl)-6-fluoro-N-(1-hydroxy-3-methyl-1,3-dihydrobenzo[c]-[1,2]oxaborol-5-y1)-2-methyl-2H-indazole-7-carboxamide hydrochloride]
> 10 µM: IC50 (HTT mRNA [1]) | AC50 (HTT mRNA [4]) | IC50 (HTT mRNA [4])
1 to 10 µM: IC50 (MYB mRNA [2]) | AC50 (MYB mRNA [5]) | IC50 (MYB mRNA [5])
0.1 to 1 µM: GI50 [3]

Cc1cc2sc(NC(=O)c3ccc(N4CCC(NC5CC5)CC4)c4cn(C)nc34)cc2c(C)n1 [Compound 559, 4-[4-(cyclopropylamino)-1-piperidyl]-N-(4,6-dimethyl-thieno[3,2-c]-pyridin-2-yl)-2-methyl-indazole-7-carboxamide]
1 to 10 µM: IC50 (HTT mRNA [1]) | IC50 (MYB mRNA [2]) | GI50 [3] | AC50 (HTT mRNA [4]) | IC50 (HTT mRNA [4]) | AC50 (MYB mRNA [5]) | IC50 (MYB mRNA [5])

CCNC1CCN(c2ccc(C(=O)Nc3cn(C)c(=O)cc3OC)c3nn(C)cc23)CC1 [Compound 560, 4-[4-(ethylamino)-1-piperidyl]-N-(4-methoxy-1-methyl-6-oxo-3-pyridyl)-2-methyl-indazole-7-carboxamide]
1 to 10 µM: IC50 (MYB mRNA [2]) | IC50 (MYB mRNA [5])
> 10 µM: IC50 (HTT mRNA [1]) | GI50 [3] | AC50 (HTT mRNA [4]) | IC50 (HTT mRNA [4]) | AC50 (MYB mRNA [5])

CCNC1CCN(c2ccc(C(=O)Nc3cc(C)c(=O)n(C)c3)c3nn(C)cc23)CC1 [Compound 561, N-(1,5-dimethyl-6-oxo-3-pyridyl)-4-[4-(ethylamino)-1-piperidyl]-2-methyl-indazole-7-carboxamide]
1 to 10 µM: IC50 (MYB mRNA [2]) | IC50 (MYB mRNA [5])
> 10 µM: IC50 (HTT mRNA [1]) | GI50 [3] | AC50 (HTT mRNA [4]) | IC50 (HTT mRNA [4]) | AC50 (MYB mRNA [5])
